Test results: US12391679B2, “Benzamide-substituted bicyclic imidazo- and pyrazolo-fused -pyridine, -pyrimide, and -pyridazine compounds for treatment of inflammatory diseases” (ONCO3R Therapeutics BV, priority 2019, dated 2025)

Experiments:
[1] = tested on: LPS-induced TNFα in monocyte-derived macrophages; assay: MdM assay: LPS-triggered TNFα (ELISA); format: cell-based, human; settings: Macrophage; human MdM; LPS 200 ng/mL; supernatant after 20 h; inhibition of TNFα; read-out: TNFα EC50
Description: This assay evaluates illustrative compounds of the invention for their inhibition of LPS-induced TNFα and LPS triggered IL-10 secretion in monocyte-derived macrophages. PBMCs are isolated from human blood samples (buffycoats). The buffy coat is aseptically transferred into a 50 mL Falcon tube, and diluted 1/2 in PBS. Falcon tubes are filled with 20 mL LymphoprepTM, on top of which 25 mL of the buffy coat is carefully added, tubes are centrifuged for 35 min at 400 g in temperature controlled centrifuge, without brake, at 25° C. PBMCs are aspirated from the white interface layer between sample and LymphoprepTM. PBMCs are washed five times in PBS. […] PBMCs are centrifuged at 300×g for 10 min and resuspended at a density of 1.0*10^7 cells/80 μL Miltenyi buffer (PBS, pH 7.4, 1% FBS, 2 mM EDTA). Starting from this point of the protocol all steps are performed on ice. 20 μL of CD14+ micro-beads are added per 1.0*10^7 cells, the tube is mixed and incubated for 15 min in the fridge at 4° C. Cell suspension volume is adjusted to total volume of 100 mL using Miltenyi buffer, mixed gently and subsequently centrifuged for 10 min at 300×g. Supernatant is discarded and cell pellet is resuspended in 12 mL of Miltenyi buffer. Four LS columns are placed in the MACS Separator (magnet) from Miltenyi Biotec, and are prewet by rinsing with 3 mL of MACS buffer per column. Three mL of cell suspension is added onto the column (max 1*10^8 of labelled cells/column), and columns are subsequently washed 3 times with 3 mL of Miltenyi buffer. The columns are removed from the magnets, and 5 mL of Miltenyi buffer are added to the column to flush out the CD14+ fraction by pushing the plunger into the column. The flushed fractions are collected in a fresh 50 mL Falcon and volume is adjusted to 30 mL using Miltenyi buffer, cells are centrifuged for 10 min at 300×g. The obtained cell pellet is resuspended in 10 mL RPMI w/o FBS, and cell density is determined using a hematologic analyser (Sysmex XS-500i). […] On day 10, MdMs are triggered and compound is added. A compound dilution plate is made in 100% DMSO by 3-fold dilution of 10 mM stock solution. An intermediate dilution plate (10× final concentration) is made by diluting the compound dilution plate […] in RPMI medium. Medium is carefully removed from cell plates using multichannel pipette, and replaced by 80 μL fresh medium. 10 μL of the 10× final concentration compound is added to the cells and incubated for 1 hour at 37° C. before addition of trigger. No trigger conditions/trigger conditions are spiked with equal final DMSO concentrations of 0.2% DMSO. 10 μL of 10×LPS (final conc. 200 ng/mL) solution are added to all wells except for the 'no trigger wells' where 10 μL medium is added. Supernatant is collected after 2 h (IL-10 determination) and after 20 h (TNFα determination) of LPS triggering. […] The plate is then washed once with PBST (PBS+0.05% Tween20) and once with PBS followed by the addition of 100 μL of blocking buffer (1% Bovine Serum Albumin (BSA) -5% Sucrose) and plates are sealed and incubated for at least 4 h at RT. After washing the plate once with PBST and once with PBS, 40 μL of standard or sample are added (TNFα standard curve is prepared using a 1/2 serial dilution starting from 16000 pg/mL; dilutions are made in dilution buffer (PBS+1% BSA)). Plates are washed twice with PBST, and once with PBS, after which 35 μL of the detection antibody is added (final concentration 0.25 μg/mL diluted in dilution buffer) and plates are incubated for at least 2 h at RT. Plates are washed twice with PBST, and once with PBS, where after 35 μL of Strep-HRP conjugate (0.5 μg/mL final concentration diluted in dilution buffer) is added. […] Plates are washed twice with PBST, and once with PBS. Thereafter, 50 μL of luminol substrate is added to each well (prepared according to manufacturer's instructions), and incubated for 5 min at RT protected from light.

SIK2 [2] = target: T1, SIK2 (Homo sapiens, UniProt Q9H0K1); assay: 33P radioactive kinase assay, SIK2; format: biochemical; further: AMARA 5 µM, 10 µM ATP
T1 construct: purchased ThermoFisher Scientific PV4792
T1 sequence (Q9H0K1 whole entry): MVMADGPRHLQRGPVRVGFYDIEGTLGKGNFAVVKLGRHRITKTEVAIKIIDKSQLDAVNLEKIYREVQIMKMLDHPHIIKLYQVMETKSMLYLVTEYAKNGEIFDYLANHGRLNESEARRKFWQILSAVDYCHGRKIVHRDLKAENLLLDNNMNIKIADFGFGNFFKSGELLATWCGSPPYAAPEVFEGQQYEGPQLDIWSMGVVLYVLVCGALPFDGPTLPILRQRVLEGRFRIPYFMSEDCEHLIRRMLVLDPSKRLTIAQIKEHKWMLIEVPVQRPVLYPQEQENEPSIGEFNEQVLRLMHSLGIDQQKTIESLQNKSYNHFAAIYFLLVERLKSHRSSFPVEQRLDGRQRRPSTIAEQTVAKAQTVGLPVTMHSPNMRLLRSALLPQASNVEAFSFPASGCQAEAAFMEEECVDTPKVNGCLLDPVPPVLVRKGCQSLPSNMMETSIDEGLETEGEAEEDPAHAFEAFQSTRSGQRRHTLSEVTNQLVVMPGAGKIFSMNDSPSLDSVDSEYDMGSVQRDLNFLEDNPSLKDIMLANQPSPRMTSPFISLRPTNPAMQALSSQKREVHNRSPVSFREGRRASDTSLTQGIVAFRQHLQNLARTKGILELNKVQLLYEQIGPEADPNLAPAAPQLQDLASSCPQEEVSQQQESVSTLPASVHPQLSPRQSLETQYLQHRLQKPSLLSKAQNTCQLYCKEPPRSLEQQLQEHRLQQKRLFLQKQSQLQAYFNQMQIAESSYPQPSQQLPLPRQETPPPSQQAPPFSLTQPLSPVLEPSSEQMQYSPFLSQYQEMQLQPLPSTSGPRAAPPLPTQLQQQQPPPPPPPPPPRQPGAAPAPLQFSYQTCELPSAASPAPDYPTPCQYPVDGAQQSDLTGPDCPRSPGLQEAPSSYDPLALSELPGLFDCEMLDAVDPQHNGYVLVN
Description: (§1) The principle of the ^33P radioactive kinase assay consists in measuring the incorporated ^33P into the substrate AMARA peptide when phosphorylated by SIK1, SIK2 or SIK3 using [^33P]-g-ATP, which correlates with kinase activity.
(§2) The test compounds are prepared as a serial dilution of 10 point dose responses with 1/5 dilution steps in 100% DMSO starting from 2 mM highest concentration, diluted 1/20 in water and 5 μL is transferred to the assay plates (Greiner, Cat #651201).
(§3) 1% DMSO and 10 μM staurosporine final concentrations are used as negative and positive controls.
(§4) 11 μL of enzyme-substrate mixture is added on the assay plates. The reactions are started by adding 9 μL ATP mixture, consisting of non-labeled and ^33P-labeled ATP, on the assay plates.
(§5) The reactions are stopped by adding 25 μL phosphoric acid (150 mM) to the reactions.
(§6) The completely terminated kinase reactions are transferred using a harvester on pre-wetted UniFilter-96 plates (UniFilter-96 GF/B, PerkinElmer Inc., Cat #6005177).
(§7) After harvesting the kinase reactions, the filter plates are washed 6 times with phosphoric acid (75 mM). The back of the UniFilter-96 plates are sealed and 40 μL MicroScint-20 (PerkinElmer Inc., Cat #6013621) is added to each well. The top of the plates are sealed with TopSeal-A. Read-out is performed with a TopCount instrument (PerkinElmer Inc.).
(§8) Raw data are generated following the read-out performed on the TopCount, plotted to generate dose response curves to calculate percentage inhibition (PIN) and average IC50 for each SIK homologue which are reported in the table below.

SIK1 [3] = target: T2, SIK1 (Homo sapiens, UniProt P57059); assay: 33P radioactive kinase assay, SIK1; format: biochemical
T2 construct: purchased Carna Biosciences 02-131
T2 sequence (P57059 whole entry): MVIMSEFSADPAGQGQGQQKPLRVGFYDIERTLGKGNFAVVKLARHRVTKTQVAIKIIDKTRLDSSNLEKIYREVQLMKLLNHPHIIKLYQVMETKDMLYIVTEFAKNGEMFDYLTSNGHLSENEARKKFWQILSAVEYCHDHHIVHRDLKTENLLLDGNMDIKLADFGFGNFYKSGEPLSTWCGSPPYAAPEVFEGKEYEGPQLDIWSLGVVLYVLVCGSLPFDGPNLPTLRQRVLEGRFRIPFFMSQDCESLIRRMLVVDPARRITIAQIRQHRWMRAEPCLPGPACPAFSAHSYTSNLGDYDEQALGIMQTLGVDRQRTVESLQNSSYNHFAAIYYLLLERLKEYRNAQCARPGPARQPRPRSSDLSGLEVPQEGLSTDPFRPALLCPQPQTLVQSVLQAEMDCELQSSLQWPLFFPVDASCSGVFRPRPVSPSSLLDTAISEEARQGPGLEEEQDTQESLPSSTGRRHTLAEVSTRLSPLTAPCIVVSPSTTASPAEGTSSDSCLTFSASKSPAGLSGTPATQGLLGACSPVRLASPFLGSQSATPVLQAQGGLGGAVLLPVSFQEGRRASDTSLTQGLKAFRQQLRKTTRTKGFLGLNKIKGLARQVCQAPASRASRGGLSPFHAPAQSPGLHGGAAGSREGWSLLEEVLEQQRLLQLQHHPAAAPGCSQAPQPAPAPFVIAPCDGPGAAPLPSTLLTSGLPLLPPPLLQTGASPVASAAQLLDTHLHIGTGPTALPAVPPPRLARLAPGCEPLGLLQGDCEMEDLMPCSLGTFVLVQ
Description: as §1, §2, §3, §4, §5, §6, §7, §8

SIK3 [4] = target: T3, SIK3 (Homo sapiens, UniProt Q9Y2K2); assay: 33P radioactive kinase assay, SIK3; format: biochemical; settings: 33P radioactive assay; AMARA 7 μM; 15 μM ATP; 80 min; average IC50
T3 construct: purchased SignalChem S12-11G-100
T3 sequence (Q9Y2K2 59-365 limits assumed): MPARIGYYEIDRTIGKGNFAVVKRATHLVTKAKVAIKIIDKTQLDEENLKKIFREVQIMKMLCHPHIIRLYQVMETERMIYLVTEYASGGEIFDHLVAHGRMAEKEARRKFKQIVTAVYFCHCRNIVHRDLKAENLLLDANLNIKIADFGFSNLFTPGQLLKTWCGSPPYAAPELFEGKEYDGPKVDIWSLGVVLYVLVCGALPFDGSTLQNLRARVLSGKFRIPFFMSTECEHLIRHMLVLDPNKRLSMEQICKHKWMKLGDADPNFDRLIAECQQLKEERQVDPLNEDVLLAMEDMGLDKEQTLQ
Description: as §1, §2, §3, §4, §5, §6, §7, §8

SIK3 [5] = target: T3, SIK3; assay: ADP-Glo kinase assay, SIK3; format: biochemical
Summary of the method: (§9)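 Each SIK isoform is incubated with substrate and ATP for 2 h at room temperature, after which residual ATP is depleted and the ADP formed is quantified by luminescence.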

SIK1 [6] = target: T2, SIK1; assay: ADP-Glo kinase assay, SIK1; format: biochemical
Summary of the method: as §9

SIK2 [7] = target: T1, SIK2; assay: ADP-Glo kinase assay, SIK2; format: biochemical
Summary of the method: as §9

EC50 [1] [nM]	IC50 (SIK2 [2]) [nM]	IC50 (SIK1 [3]) [nM]	IC50 (SIK3 [4]) [nM]	IC50 (SIK3 [5]) [nM]	IC50 (SIK1 [6]) [nM]	IC50 (SIK2 [7]) [nM]	Compound
1000 to 5000	> 500	> 500	10 to 100	10 to 100	> 500	> 500	COc1cc(-c2cnc3cc(C(C)(C)C#N)ccn23)cc2c1C(=O)N(CC(F)(F)F)CC2 [Cpd 25, 2-[3-[8-methoxy-1-oxo-2-(2,2,2-trifluoroethyl)-3,4-dihydroisoquinolin-6-yl]imidazo[1,2-a]pyridin-7-yl]-2-methyl-propanenitrile]
100 to 1000	100 to 500	> 500	10 to 100	0.01 to 10	> 500	100 to 500	COc1cc(-c2cnc3cc(C(C)C#N)ccn23)cc(OC(F)F)c1C(=O)NC1CC1 (stereo not shown) [Cpd 26, 4-[7-(1-cyanoethyl)imidazo[1,2-a]pyridin-3-yl]-N-cyclopropyl-2-(difluoromethoxy)-6-methoxy-benzamide]
100 to 1000	> 500	> 500	10 to 100	0.01 to 10	> 500	100 to 500	COc1cc(-c2cnc3cc(C4(C#N)CCC4)ccn23)cc(OC(F)F)c1C(=O)NC1CC1 [Cpd 34, 4-[7-(1-cyanocyclobutyl)imidazo[1,2-a]pyridin-3-yl]-N-cyclopropyl-2-(difluoromethoxy)-6-methoxy-benzamide]

The next lines start with the compound.

Compound	EC50 [1] [nM]	IC50 (SIK2 [2]) [nM]	IC50 (SIK1 [3]) [nM]	IC50 (SIK3 [4]) [nM]	IC50 (SIK3 [5]) [nM]	IC50 (SIK1 [6]) [nM]	IC50 (SIK2 [7]) [nM]
COc1cc(-c2cnc3cc(C4CCN(C(=O)OC(C)(C)C)CC4)ccn23)cc(OC)c1C(=O)NCC(F)(F)F [Cpd 16, tert-butyl 4-[3-[3,5-dimethoxy-4-(2,2,2-trifluoroethylcarbamoyl)phenyl]imidazo[1,2-a]pyridin-7-yl]piperidine-1-carboxylate]	> 5000	100 to 500	> 500	10 to 100	–	–	–
COc1cc(-c2cnc3cc(C(C)(C)C#N)ccn23)cc(OC)c1C(=O)NCC(F)(F)F [Cpd 17, 4-[7-(1-cyano-1-methyl-ethyl)imidazo[1,2-a]pyridin-3-yl]-2,6-dimethoxy-N-(2,2,2-trifluoroethyl)benzamide]	100 to 1000	> 500	> 500	10 to 100	10 to 100	> 500	> 500
COc1cc(-c2cnc3cc(C(C)(C)C#N)ccn23)cc2c1C(=O)NCC2 [Cpd 20, 2-[3-(8-methoxy-1-oxo-3,4-dihydro-2H-isoquinolin-6-yl)imidazo[1,2-a]pyridin-7-yl]-2-methyl-propanenitrile]	1000 to 5000	> 500	> 500	10 to 100	10 to 100	> 500	> 500
COc1cc(-c2cnc3cc(C4CCCN(C)C4)ccn23)cc(OC)c1C(=O)NCC(F)(F)F (stereo not shown) [Cpd 24, 2,6-dimethoxy-4-[7-(1-methyl-3-piperidyl)imidazo[1,2-a]pyridin-3-yl]-N-(2,2,2-trifluoroethyl)benzamide]	1000 to 5000	100 to 500	> 500	10 to 100	10 to 100	> 500	100 to 500
